Measurements reported in patent publication US8658383B2, “Sweet taste receptor-expressing construct, cell body expressing the same, and utilization thereof” (T. Hasegawa Co., Ltd., priority 2009, dated 2014).
Residues, ends and D or L forms follow the SMILES beside them.

Target: T1, human sweet taste receptor (hT1R2+hT1R3) (Homo sapiens, UniProt Q7RTX0+Q8TE23)
T1 sequence (Q8TE23 20-839): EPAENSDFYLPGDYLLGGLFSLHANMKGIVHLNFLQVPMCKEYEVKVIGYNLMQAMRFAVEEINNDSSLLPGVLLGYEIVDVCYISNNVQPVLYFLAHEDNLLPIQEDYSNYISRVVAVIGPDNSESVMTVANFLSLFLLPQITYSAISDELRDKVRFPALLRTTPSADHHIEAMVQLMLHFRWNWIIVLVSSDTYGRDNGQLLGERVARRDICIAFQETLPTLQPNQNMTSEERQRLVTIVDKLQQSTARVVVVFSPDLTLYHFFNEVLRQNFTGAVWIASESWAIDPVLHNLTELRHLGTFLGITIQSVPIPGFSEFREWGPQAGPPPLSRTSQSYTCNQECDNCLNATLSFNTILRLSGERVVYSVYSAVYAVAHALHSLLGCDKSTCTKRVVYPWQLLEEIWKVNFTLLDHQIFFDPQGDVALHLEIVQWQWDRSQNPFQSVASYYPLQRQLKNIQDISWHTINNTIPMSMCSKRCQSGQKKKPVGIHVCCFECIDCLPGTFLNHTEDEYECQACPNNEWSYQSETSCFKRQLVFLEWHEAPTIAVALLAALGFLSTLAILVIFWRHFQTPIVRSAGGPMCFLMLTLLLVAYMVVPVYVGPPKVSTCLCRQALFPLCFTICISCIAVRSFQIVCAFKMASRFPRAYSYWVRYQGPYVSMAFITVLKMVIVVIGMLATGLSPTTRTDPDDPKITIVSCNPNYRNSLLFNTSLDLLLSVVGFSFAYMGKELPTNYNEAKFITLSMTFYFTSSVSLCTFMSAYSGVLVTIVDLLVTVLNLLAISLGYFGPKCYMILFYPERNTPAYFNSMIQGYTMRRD
T1 sequence (Q7RTX0 21-852): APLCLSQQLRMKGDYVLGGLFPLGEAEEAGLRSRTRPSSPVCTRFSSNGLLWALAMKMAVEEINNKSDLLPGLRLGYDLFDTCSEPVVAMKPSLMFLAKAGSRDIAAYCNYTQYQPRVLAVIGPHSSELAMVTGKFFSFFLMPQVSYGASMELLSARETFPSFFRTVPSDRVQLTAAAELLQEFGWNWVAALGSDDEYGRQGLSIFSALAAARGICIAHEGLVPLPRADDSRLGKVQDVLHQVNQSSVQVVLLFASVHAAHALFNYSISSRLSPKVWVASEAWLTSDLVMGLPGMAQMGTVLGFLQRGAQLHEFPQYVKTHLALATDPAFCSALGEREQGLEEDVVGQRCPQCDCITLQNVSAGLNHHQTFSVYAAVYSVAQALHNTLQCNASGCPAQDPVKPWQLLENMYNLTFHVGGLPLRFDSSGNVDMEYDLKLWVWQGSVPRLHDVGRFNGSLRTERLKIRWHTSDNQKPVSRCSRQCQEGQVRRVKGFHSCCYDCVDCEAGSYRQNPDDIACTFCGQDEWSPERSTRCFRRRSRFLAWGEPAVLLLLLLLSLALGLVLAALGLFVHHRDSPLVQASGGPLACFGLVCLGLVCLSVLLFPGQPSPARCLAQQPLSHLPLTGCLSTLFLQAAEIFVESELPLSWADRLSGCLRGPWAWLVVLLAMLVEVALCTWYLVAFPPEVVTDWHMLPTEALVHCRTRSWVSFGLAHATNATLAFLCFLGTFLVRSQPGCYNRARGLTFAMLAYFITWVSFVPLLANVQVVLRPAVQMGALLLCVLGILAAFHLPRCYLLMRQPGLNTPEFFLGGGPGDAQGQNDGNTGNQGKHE
Test: Automated fluorescent calcium imaging (Fluo-4 AM, FlexStation 3) of cultured cell strain (A)
Type: cell-based
Set-up: The sweet taste receptor subunits T1R2 and T1R3 include an entire part of each subunit
Details: Average ± S.E., n = 2
Protocol: Automated fluorescent imaging using FlexStation 3 (Molecular Devices) can be performed, for example, according to the following procedure.
First, cells are suspended in a low glucose ([…]) DMEM medium from which hygromycin B has been removed, and each 70 to 80 thousands of cells are seeded on each well of a 96-well plate (Corning, CellBIND Surface).
Then, after cultured at 37° C. for 24 hours, a medium is removed and replaced with a suitable amount of a HEPES (2-[4-(2-hydroxyethyl)-1-piperazinyl]ethanesulfonic acid) buffer, and a HEPES buffer containing a fluorescent calcium indicator (Fluo-4 AM attached to Molecular Devices, FLIPR Ca 4 Assay Kit) is further added. In order to facilitate transfer into cells, a fat-soluble acetoxymethyl group has been introduced into the fluorescent indicator Fluo-4 (excitation wavelength: 495 nm, fluorescent wavelength: 518 nm), and when it is added to a medium, it is easily taken into cells, and is hydrolyzed with an esterase in cells. Hydrolyzed Fluo-4 becomes difficult to be permeated through a cell membrane, and is diffused into cells to form a complex with calcium, emitting intense fluorescence. In a 96-well plate for fluorescent observation, there are a plastic bottom and a film bottom. Since a plate of the plastic bottom is satisfactory in adherability and growth of cells, it is used at a simultaneous assay using a multiplate reader for observing an entire well. However, since a plate of this plastic bottom is bad in transmission property of a UV wavelength, and inhibits transmission of excited light of Fura-2, Fluo-4 is used.
Then, after incubated at 27 to 37° C. for 30 to 60 minutes, by adding thereto a sweet taste substance at a particular concentration or a solution of a sweet taste substance and a substance to be tested, taste stimulation is performed at 27 to 37° C.
A physiological response of the cultured cell strain (A) to sucrose stimulation was analyzed by automated fluorescent imaging.
The cultured cell strain (A) prepared in Example 4 was trypsinized, and suspended in the DMEM medium, a cell density was measured, and each about 80 thousand cells were seeded on each well of a 96-well plate (Corning, CellBIND Surface).
After cultured at 37° C. for 24 hours, the medium was removed and replaced with 50 μl of a HEPES buffer, and 50 μl of a HEPES buffer containing a fluorescent calcium indicator (Fluo-4 AM attached to Molecular Devices, FLIPR Ca 4 Assay Kit) was further added. Then, this was incubated at 27° C. for 45 minutes to prepare cells to be subjected to automated fluorescent imaging.
Then, to the cells was added a HEPES buffer containing sucrose, so that a final concentration of sucrose became a concentration described in Table 1, and sucrose stimulation was performed at 27° C.
The vertical axis of FIG. 15 is a maximum of change (AF) in a fluorescent intensity between immediately after stimulation and 100 seconds after stimulation, that is, a response intensity of cells, and the horizontal axis indicates a sucrose concentration (mM) expressed by logarithm.
A physiological response of the cultured cell strain (A) to D-phenylalanine stimulation was analyzed by automated fluorescent imaging.

- Change amount of fluorescent intensity (ΔF) (aspartame 0.04 mM): 3.0 ± 0.1
- Change amount of fluorescent intensity (ΔF) (aspartame 0.16 mM): 4.4 ± 1.1
- Change amount of fluorescent intensity (ΔF) (aspartame 0.31 mM): 5.2 ± 0.4
- Change amount of fluorescent intensity (ΔF) (aspartame 0.63 mM): 12.3 ± 1.7
- Change amount of fluorescent intensity (ΔF) (aspartame 1.25 mM): 27.9 ± 1.9
- Change amount of fluorescent intensity (ΔF) (aspartame 2.50 mM): 31.2 ± 0.7
SMILES: COC(=O)[C@H](Cc1ccccc1)NC(=O)[C@@H](N)CC(=O)O [aspartame] (H-Asp-Phe-OMe)
